Data: paper PMC6766590, “Protocatechuic acid from chicory is bioavailable and undergoes partial glucuronidation and sulfation in healthy humans” (Food Science & Nutrition, 2019)
Like-named read-outs stand apart in the source and are kept apart here.

What was measured:
[1] = system: human fecal suspensions with gut microbiota; conditions: for Substrate recovered at the initial time point from the fecal suspensions: 0 hr, initial substrate dose 1 µmol; for Substrate amount in human fecal suspension: initial dose 1 µmol, 37°C anaerobic
Experimental: The column was a Zorbax SB‐C18 column (250 mm × 4.6 mm, 5.0 µm). […] Quantification of phenolic acids was carried out by an internal standard method using calibration curves. […] For each analytical run, a standard curve was prepared in the appropriate matrix (methanol, blank serum, urine, or feces) and used to determine the content of phenolic acids in chicory or biological samples. The detection limit for phenolic acids (10‐fold baseline noise) under the conditions used in this study was 1 ng/ml in serum and 5 ng/ml in urine and feces, and values below this concentration were reported as zero. […] Mycophenolic acid was selected as the internal standard.
Fresh feces (2 g) collected from human adults were mixed with 10 ml of brain–heart infusion medium, and the resulting solution was filtered with autoclaved gauze to remove the dregs before use. […] The mixture was fermented at 37°C under anaerobic conditions using the anaerobic chamber. […] All incubations were performed in triplicate. At the same time, the fecal suspension was incubated without phenolic acids as a negative control.

[2] = system: human gut microbiota; parameters: method as in Gonthier et al., 2006; conditions: ref Gonthier et al., 2006; cited from earlier work
[3] = parameters: method as in Chen et al., (2012); conditions: CF‐1 mice, oral 50 mg/kg; ref Chen et al., (2012); cited from earlier work
[4] = Single-dose pharmacokinetic trial, serum protocatechuic acid and conjugates after 150 g of chicory; assay type: in vivo, human
Experimental: (§1) A single-dose pharmacokinetic trial was conducted to evaluate the acute (24 hr) bioavailability of protocatechuic acid from chicory juice. Qualified participants were asked to consume foods low in phytochemicals for three days prior to the chicory juice intervention. Participants were also asked to consume a diet without vegetables, fruits, and plant-based beverages for the day prior to the intervention and the intervention day. The purpose of these dietary restrictions was to reduce any residual dietary phenolic compounds from the body (these compounds are typically cleared from blood, urine, and feces within 48 hr of consumption) and to ensure phenolic compounds present in the blood, urine, and feces samples collected during the intervention were derived from the chicory juice alone. Prior to administering the chicory juice, overnight fasting blood, urine, and feces (first-morning void) were collected at time 0 hr as the baseline. A single dose of chicory juice (150 g of chicory) was then orally ingested by each of the participants under close observation by the researcher in 5 min. No other foods or beverages were provided at this time. The chicory juice was prepared together approximately 10 min prior to this pharmacokinetic trial. One portion of chicory juice was kept to quantify the content of protocatechuic acid. […] Fecal samples from 0-24 hr after chicory juice drinking were collected. […] Mycophenolic acid was selected as the internal standard. The pharmacokinetic parameters of protocatechuic acid in the free, glucuronide, and sulfate conjugates were calculated using DAS 2.1 (BioGuider Co.), with a noncompartmental model: maximum serum concentrations (Cmax); time to achieve maximum serum concentrations (Tmax); the area under the concentration-time curve to 24 hr (AUC0-24); and terminal elimination half-life (T1/2z). The apparent bioavailability of protocatechuic acid together was quantified using AUC0-24 divided by its ingested amount. Urinary and fecal recoveries were calculated using the total content of urinary and fecal protocatechuic acid divided by its ingested amount.

[5] = parameters: method as in Wang, Zou, et al., 2011; conditions: ApoE^‐/‐ mice, single oral gavage 25 mg/kg; ref Wang, Zou, et al., 2011; cited from earlier work
[6] = Fecal excretion/recovery of protocatechuic acid and conjugates after 150 g of chicory; assay type: in vivo, human
Experimental: as §1

[7] = Urinary excretion/recovery of protocatechuic acid and conjugates after 150 g of chicory; assay type: in vivo, human
Experimental: as §1

[8] = system: mouse gut microbiota; parameters: method as in Lin et al., 2016; conditions: ref Lin et al., 2016; cited from earlier work

O=C(/C=C/c1ccc(O)c(O)c1)O[C@@H]1C[C@@](O)(C(=O)O)C[C@@H](O)[C@@H]1O [5‐caffeoylquinic acid]
Substrate recovered at the initial time point from the fecal suspensions [1]: 79.3 ± 5.7%
Substrate amount in human fecal suspension ([1]; incubation time 0 h): 0.79 ± 0.06 µmol

O=C(O)/C=C/c1ccc(O)c(O)c1 [Caffeic acid]
Substrate recovered at the initial time point from the fecal suspensions [1]: 86.0 ± 3.0%
Substrate amount in human fecal suspension ([1]; incubation time 0 h): 0.86 ± 0.03 µmol
Substrate amount in human fecal suspension ([1]; incubation time 6 h): 0.16 ± 0.11 µmol

O=C(/C=C/c1ccc(O)c(O)c1)O[C@@H](C(=O)O)[C@@H](O)C(=O)O [Caftaric acid]
Substrate recovered at the initial time point from the fecal suspensions [1]: 91.5% ± 4.7%
Substrate amount in human fecal suspension ([1]; incubation time 0 h): 0.92 ± 0.05 µmol
Generation of protocatechuic acid by human gut microbiota metabolism [2]: cannot generate protocatechuic acid

O=C(O)c1cc(O)c(O)c(O)c1 [Gallic acid]
Substrate recovered at the initial time point from the fecal suspensions [1]: 95.8 ± 3.3%
Substrate amount in human fecal suspension ([1]; incubation time 0 h): 0.96 ± 0.03 µmol
Substrate amount in human fecal suspension ([1]; incubation time 6 h): 0.75 ± 0.14 µmol
Substrate amount in human fecal suspension ([1]; incubation time 12 h): 0.60 ± 0.18 µmol
Substrate amount in human fecal suspension ([1]; incubation time 24 h): 0.27 ± 0.23 µmol

O=C(O)c1ccc(O)c(O)c1 [PCA‐F, 3,4‐dihydroxybenzoic acid]
Peak plasma level [3]: 73.6 µM
T1/2z, terminal elimination half‐life ([4]; 16 healthy adults, 150 g of chicory oral, serum): 1.72 ± 0.35 h
Recovery in blood circulation ([4]; 16 healthy adults, 150 g of chicory oral, AUC0‐24 divided by ingested amount): 15.60% ± 4.21%
half-life ([4]; both sexes, human, serum, 16 healthy adults, 150 g of chicory oral, read-out: T1/2z in serum (converted)): 1.72 ± 0.35 h
AUC(0-t) ([4]; both sexes, human, 16 healthy adults, 150 g of chicory oral, serum, read-out: AUC0−24, area under the concentration–time curve to 24 hr): 16.9 ± 3 µM·h
Cmax ([4]; both sexes, human, 16 healthy adults, 150 g of chicory oral, serum, read-out: Maximum (peak) serum concentration, Cmax): 3.27 µM
Tmax ([4]; both sexes, human, 16 healthy adults, 150 g of chicory oral, serum, read-out: Time of peak serum concentration): 1 h
Ingested protocatechuic acid recovered in the blood circulation, urine, and feces together ([4]; both, human, in vivo, po): 48.74%
Recovery in blood circulation ([4]; both, human, in vivo, po): about 23.79 % of the ingested dose
AUC(0-t) ([4]; female, human, oral, women, n = 8, 150 g of chicory, serum, read-out: AUC0−24): 17.2 ± 1.81 µM·h
Cmax ([4]; female, human, oral, women, n = 8, 150 g of chicory, serum, read-out: Cmax): 3.45 µM
half-life ([4]; female, human, oral, women, n = 8, 150 g of chicory, serum, read-out: T1/2z (converted)): 1.81 ± 0.48 h
Tmax ([4]; female, human, oral, women, n = 8, 150 g of chicory, serum, read-out: Tmax): 1 h
AUC(0-t) ([4]; male, human, oral, men, n = 8, 150 g of chicory, serum, read-out: AUC0−24): 16.6 ± 1.63 µM·h
Cmax ([4]; male, human, oral, men, n = 8, 150 g of chicory, serum, read-out: Cmax): 3.1 µM
half-life ([4]; male, human, oral, men, n = 8, 150 g of chicory, serum, read-out: T1/2z (converted)): 1.63 ± 0.04 h
Tmax ([4]; male, human, oral, men, n = 8, 150 g of chicory, serum, read-out: Tmax): 1 h
Recovery in blood circulation ([4]; men, n = 8, 150 g of chicory): 17.18 ± 4.05 % of the ingested dose
Recovery in blood circulation ([4]; women, n = 8, 150 g of chicory): 14.01 ± 3.74 % of the ingested dose
Maximal level in plasma [5]: approximately 4.3 µM
Recovery in feces ([6]; 16 healthy adults, 150 g of chicory oral, 0-24 hr feces): 12.79 % of the ingested dose
Mean content in feces ([6]; 16 healthy adults, feces 0-24 hr after 150 g of chicory): 8.00 ± 3.17 µmol
dose excreted ([6]; human, 150 g of chicory (as juice), 16 healthy adults, 150 g of chicory oral, 0-24 hr feces): 3.25%
Recovery in feces ([6]; men, n = 8, 150 g of chicory): 2.52 ± 0.87 % of the ingested dose
Recovery in feces ([6]; women, n = 8, 150 g of chicory): 3.97 ± 1.38 % of the ingested dose
Formation of protocatechuic acid from gallic, caffeic, 5‐caffeoylquinic, caftaric or chicoric acid in human fecal suspensions ([1]; 1 µmol substrate, up to 24 hr, listed as protocatechuic acid): could not be detected
Recovery in urine ([7]; 16 healthy adults, 150 g of chicory oral, 0-24 hr urine): 12.17 % of the ingested dose
Time at which urinary excretion reached the plateau ([7]; 16 healthy adults, after chicory juice consumption): 6 h
dose excreted ([7]; human, 150 g of chicory (as juice), 16 healthy adults, 150 g of chicory oral, 0-24 hr urine): 5.02%
Recovery in urine ([7]; men, n = 8, 150 g of chicory): 5.66 ± 3.87 % of the ingested dose
Recovery in urine ([7]; women, n = 8, 150 g of chicory): 4.38 ± 2.28 % of the ingested dose

O=c1cc(-c2ccc(O)cc2)oc2cc(O)cc(O)c12 [apigenin]
Catabolism into protocatechuic acid by mouse gut microbiota [8]: intensively catabolized into protocatechuic acid

O=c1c(O)c(-c2ccc(O)c(O)c2)oc2cc(O)cc(O)c12 [quercetin]
Catabolism into protocatechuic acid by mouse gut microbiota [8]: intensively catabolized into protocatechuic acid
